Laboratory results reported in PMC12775434, “Ultra-large virtual screening unveils potent agonists of the neuromodulatory orphan receptor GPR139” (Nature Communications, 2025).
Where “and” joins values, the source holds several entries; their conditions need not be identical. Equal entries are not always repeated.

Assays:
GPR139 [1] = biological target: T1, GPR139 (Homo sapiens, UniProt Q6DWJ6); test: Ca2+ mobilization assay, antagonist mode (EC80 800 nM Lundbeck Cmp 1a after 20 min preincubation), GPR139-CHOk1; type: cell-based; conditions: individual replicates (Supplementary Figure 1)
T1 sequence (Q6DWJ6 1-353): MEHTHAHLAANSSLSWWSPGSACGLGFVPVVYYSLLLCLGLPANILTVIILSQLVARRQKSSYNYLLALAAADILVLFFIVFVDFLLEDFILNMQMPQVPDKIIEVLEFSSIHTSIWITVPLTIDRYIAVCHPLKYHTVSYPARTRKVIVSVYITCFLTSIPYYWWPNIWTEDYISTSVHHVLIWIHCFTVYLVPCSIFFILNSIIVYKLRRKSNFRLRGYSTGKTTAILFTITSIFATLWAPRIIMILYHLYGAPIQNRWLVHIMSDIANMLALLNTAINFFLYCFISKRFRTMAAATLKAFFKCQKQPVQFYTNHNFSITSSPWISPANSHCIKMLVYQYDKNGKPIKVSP
Protocol: (§1) 30,000 GPR139- or M1R-CHOk1 cells/well were seeded in black clear bottom tissue culture treated 96-well plates (Greiner #655090) and grown for 20–24 h. Cells were washed with HEPES buffer (Hank’s Balanced Salt Solution (HBBS) supplemented with 20 mM HEPES, 1 mM MgCl2, and 1 mM CaCl2; pH 7.4). Cells were loaded with 50 µL of 2 µM Fluo-4 AM dye (ThermoFisher #F14202) in HEPES buffer supplemented with 2.5 mM probenecid and 0.01% Pluronic F-68 (ThermoFisher #24040032) for 1 h at 37 °C. Cells were washed with HEPES buffer. 50 µL HEPES buffer supplemented with 2.5 mM probenecid was added, and the cells were incubated for 10 min at 37 °C before measurement. 50 µL test compounds diluted in HEPES buffer from DMSO stocks (final DMSO concentration of maximally 0.3%) were added automatically after baseline measurements. The intracellular calcium mobilization was measured on a FlexStation 3 Multimode Microplate Reader (Molecular Devices) at 37 °C with filters for excitation of 485 nm and emission of 525 nm.
Our primary compound screening protocol consisted of two subsequent steps that allowed to screen for agonists and antagonists simultaneously. In the first step, the screening compounds were applied at 10 µM to test for agonist activity (agonist mode). Following 20 min incubation with the compounds added in the first step, in the second step, an EC80 concentration (800 nM) of the reference agonist Lundbeck Cmp 1a was applied to test for antagonist activity (antagonist mode). In the agonist mode (first step) response is seen only with compounds having agonist activity (Cmp 1a), but not with non-receptor-binding compounds (Vehicle) or antagonists (NCRW0105-E06) (Supplementary Fig. 14). […] No antagonist compounds were identified in this study.

GPR139 [2] = biological target: T1, GPR139; test: Ca2+ mobilization assay, agonist mode, stable GPR139-CHOk1 cell line; type: cell-based
Protocol: Primary screening and pharmacological characterization of compounds were performed using a CHO-K1 cell line that stably expresses human GPR139 (GPR139-CHOk1). The GPR139-CHOk1 cell line was kindly provided by H. Lundbeck A/S, Denmark[24]. GPR139-CHOk1 cells were grown in Ham’s F-12 Kaighn’s Modification Medium (ThermoFisher #21127030) supplemented with 10% dialyzed fetal bovine serum (US origin, ThermoFisher #26400044), 100 units/mL Penicillin-Streptomycin (ThermoFisher #15140122), and 1 mg/mL Geneticin (ThermoFisher #11811031). […] M1R-CHOk1 cells were purchased from The Missouri S&T cDNA Resource Center (#CEM100TN00). M1R-CHOk1 cells were grown in Ham’s F12 Medium (ThermoFisher #21765029) supplemented with 10% fetal bovine serum (Brazilian origin, ThermoFisher #10270106), 100 units/mL Penicillin-Streptomycin, and 0.25 mg/mL Geneticin. HEK293A cells transiently transfected with GPR139 were used for additional pharmacological assessment of signaling pathways activated by GPR139. HEK239A cells were generously provided by Dr. Asuka Inoue, Tohoku University, Japan. HEK293A cells were grown in Dulbecco’s Modified Eagle Medium (ThermoFisher #31966047) supplemented with 10% dialyzed fetal bovine serum and 100 units/mL Penicillin-Streptomycin. Cell lines were maintained at 37 °C in humidified incubator equilibrated with 5% CO2.
as §1
Our primary compound screening protocol consisted of two subsequent steps that allowed to screen for agonists and antagonists simultaneously. In the first step, the screening compounds were applied at 10 µM to test for agonist activity (agonist mode). Following 20 min incubation with the compounds added in the first step, in the second step, an EC80 concentration (800 nM) of the reference agonist Lundbeck Cmp 1a was applied to test for antagonist activity (antagonist mode).
Pharmacological data and statistical analyses were performed in GraphPad Prism v9–10 (Graphpad Software Inc., San Diego, CA), which are also specifically described in the figure and table legends. The functional assay responses were normalized to buffer (0%) and Lundbeck Cmp 1a or JNJ-63533054 (100%), for Ca^2+ and IP1 experiments in the GPR139-CHOk1 stable cell line or Ca^2+, G protein activation, and arrestin-3 recruitment experiments in the HEK293A cells transiently transfected with GPR139, respectively. Data are from at least three independent experiments, unless stated otherwise. Concentration-response curves were fitted applying non-linear regression using the log (agonist) versus response model with variable slope. ANOVA was applied for comparing results and determining statistical significance.

[3] = Agonist mode, individual replicates (Supplementary Figure 1)
[4] = primary screen, 10 µM compound, agonist mode, three columns = independent experiments

| SMILES | Ca2+ signal (% of Cmp 1a) (GPR139 [1]) | Ca2+ signal (% of Cmp 1a) (GPR139 [2]; [3]) | Ca2+ signal (% of Cmp 1a) (GPR139 [2]; [4]) |
| --- | --- | --- | --- |
| O=C(Nc1ccnc(OCc2ccccc2)c1)C1Cc2ccccc21 (stereo not drawn) [Compound 43, O=C(NC=1C=CN=C(OCC=2C=CC=CC2)C1)C3CC=4C=CC=CC34] | 90.3553 % of Cmp 1a and 81.3074 % of Cmp 1a and 78.6074 % of Cmp 1a | 0.84 % of Cmp 1a and 9 % of Cmp 1a and 13 % of Cmp 1a | – |
| COCC1(CNC(=O)NCc2ccccc2)OCCc2ccccc21 (stereo not drawn) [Compound 44, COCC1(CNC(=O)NCC=2C=CC=CC2)OCCC=3C=CC=CC31] | 80.8112 % of Cmp 1a and 71.471 % of Cmp 1a and 86.0472 % of Cmp 1a | 8 % of Cmp 1a and -1.67 % of Cmp 1a and 19 % of Cmp 1a | – |
| CCn1c(Nc2ccn(C)n2)nnc1-c1n[nH]c(=O)c2ccccc12 [Compound 45, CCN1C(NC=2C=CN(C)N2)=NN=C1C3=NNC(=O)C=4C=CC=CC34] | 78.1245 % of Cmp 1a and 83.0928 % of Cmp 1a and 73.9872 % of Cmp 1a | 0.117 % of Cmp 1a and 7 % of Cmp 1a and 8 % of Cmp 1a | – |
| O=C(CCn1cnc2cc(Cl)ccc2c1=O)Nc1ccccc1F [Compound 46, FC=1C=CC=CC1NC(=O)CCN2C=NC=3C=C(Cl)C=CC3C2=O] | 71.2649 % of Cmp 1a and 88.164 % of Cmp 1a and 80.2917 % of Cmp 1a | 2.73 % of Cmp 1a and -6 % of Cmp 1a (2×) | – |
| CC(=O)Nc1nc(Cn2cnc3c2CC(C)C(C)C3)cs1 (stereo not drawn) [Compound 47, CC1CC=2N=CN(CC3=CSC(NC(=O)C)=N3)C2CC1C] | 79.7228 % of Cmp 1a and 79.8068 % of Cmp 1a and 92.3954 % of Cmp 1a | -0.697 % of Cmp 1a and 10 % of Cmp 1a and 0.881 % of Cmp 1a | – |
| Cc1cc2c(=O)n(CC(O)C(C)c3ccccc3)cnc2cc1F (stereo not drawn) [Compound 48, CC(C(O)CN1C=NC=2C=C(F)C(C)=CC2C1=O)C=3C=CC=CC3] | 94.1087 % of Cmp 1a and 84.538 % of Cmp 1a and 82.6111 % of Cmp 1a | 3.29 % of Cmp 1a and 10 % of Cmp 1a and 6 % of Cmp 1a | – |
| Cc1ccc(C(C)NC(=O)Nc2ccc3c(c2)CCCC3=O)o1 (stereo not drawn) [Compound 49, CC(NC(=O)NC=1C=CC=2C(=O)CCCC2C1)C3=CC=C(C)O3] | 51.3038 % of Cmp 1a and 78.2883 % of Cmp 1a and 60.6272 % of Cmp 1a | 20 % of Cmp 1a and 6 % of Cmp 1a and 32 % of Cmp 1a | – |
| CC(NC(=O)N(C)Cc1cccc(N(C)C)c1)c1csnn1 (stereo not drawn) [Compound 50, CC(NC(=O)N(C)CC=1C=CC=C(C1)N(C)C)C2=CSN=N2] | 75.065 % of Cmp 1a and 68.1289 % of Cmp 1a and 85.7156 % of Cmp 1a | -2.47 % of Cmp 1a and 0.0154 % of Cmp 1a and -4 % of Cmp 1a | – |
| CC(Sc1nnc(C(C)(C)C)[nH]1)C(=O)NC(C)c1ccccc1 (stereo not drawn) [Compound 51, CC(NC(=O)C(C)SC1=NN=C(N1)C(C)(C)C)C=2C=CC=CC2] | 68.4513 % of Cmp 1a and 72.762 % of Cmp 1a and 87.4722 % of Cmp 1a | -5 % of Cmp 1a and -3 % of Cmp 1a and 10 % of Cmp 1a | – |
| CC1(C)COc2cc(NC(=O)NCc3cccnn3)ccc21 [Compound 52, CC1(C)COC=2C=C(NC(=O)NCC=3C=CC=NN3)C=CC21] | 71.4617 % of Cmp 1a and 78.215 % of Cmp 1a and 78.5023 % of Cmp 1a | 1.65 % of Cmp 1a and 1.26 % of Cmp 1a and 1.78 % of Cmp 1a | 1.65 % of Cmp 1a and 1.26 % of Cmp 1a and 1.78 % of Cmp 1a |
| C[C@@H](NC(=O)CSc1nnc2n1CCCCC2)c1ccccc1 [Compound 53, C[C@@H](NC(=O)CSC1=NN=C2CCCCCN12)C=3C=CC=CC3] | 70.6126 % of Cmp 1a and 69.0784 % of Cmp 1a and 84.522 % of Cmp 1a | 10 % of Cmp 1a and 6 % of Cmp 1a and 3.73 % of Cmp 1a | – |
| C[C@@H](NC(=O)CSc1nnc(C(F)(F)F)s1)c1ccccc1 [Compound 54, C[C@@H](NC(=O)CSC1=NN=C(S1)C(F)(F)F)C=2C=CC=CC2] | 75.2455 % of Cmp 1a and 70.4918 % of Cmp 1a and 82.6113 % of Cmp 1a | 0.563 % of Cmp 1a and 1.54 % of Cmp 1a and 23 % of Cmp 1a | – |
| C[C@@H](NC(=O)Cn1c2c(sc1=O)CCCCC2)c1ccccc1 [Compound 55, C[C@@H](NC(=O)CN1C=2CCCCCC2SC1=O)C=3C=CC=CC3] | 74.6627 % of Cmp 1a and 75.4146 % of Cmp 1a and 90.0274 % of Cmp 1a | 18 % of Cmp 1a and -2.59 % of Cmp 1a and 22 % of Cmp 1a | – |
| Cc1ccc(C(C)(C)NC(=O)Nc2cnc3nccn3c2)cn1 [Compound 56, CC=1C=CC(=CN1)C(C)(C)NC(=O)NC=2C=NC3=NC=CN3C2] | 82.8713 % of Cmp 1a | 5.3 % of Cmp 1a | – |
| O=C(CCn1nnn(-c2ccccc2)c1=O)Nc1ccc(F)cc1 [Compound 57, FC=1C=CC(NC(=O)CCN2N=NN(C=3C=CC=CC3)C2=O)=CC1] | 80.3514 % of Cmp 1a and 84.9179 % of Cmp 1a and 81.9632 % of Cmp 1a | 6 % of Cmp 1a and 0.524 % of Cmp 1a and 4 % of Cmp 1a | – |
| O=C(Nc1nc(C(F)(F)F)cs1)c1ccccc1-n1cnnn1 [Compound 58, FC(F)(F)C1=CSC(NC(=O)C=2C=CC=CC2N3C=NN=N3)=N1] | 95.3999 % of Cmp 1a and 91.9653 % of Cmp 1a and 85.8363 % of Cmp 1a | 8 % of Cmp 1a and -1.73 % of Cmp 1a and -5 % of Cmp 1a | – |
| Cc1ccc(Oc2ccc(NC(=O)C(C)n3cccn3)cn2)cc1 (stereo not drawn) [Compound 59, CC(C(=O)NC=1C=CC(OC=2C=CC(C)=CC2)=NC1)N3C=CC=N3] | 78.8114 % of Cmp 1a and 81.7621 % of Cmp 1a and 78.2182 % of Cmp 1a | -2 % of Cmp 1a and -8 % of Cmp 1a and 2.12 % of Cmp 1a | – |
| Cc1ccc(C(=O)Nc2cccc(-c3nnc[nH]3)c2)c2c1CCC2 [Compound 61, CC=1C=CC(C(=O)NC=2C=CC=C(C2)C3=NN=CN3)=C4CCCC41] | 50.3835 % of Cmp 1a and 83.4509 % of Cmp 1a and 72.5179 % of Cmp 1a | -6 % of Cmp 1a and -0.901 % of Cmp 1a and -0.172 % of Cmp 1a | – |
| CCN(C(=O)c1cc(Cc2ccccc2)n[nH]1)c1ccc(F)cc1 [Compound 62, CCN(C(=O)C1=CC(CC=2C=CC=CC2)=NN1)C=3C=CC(F)=CC3] | 74.8769 % of Cmp 1a and 70.0616 % of Cmp 1a and 70.7351 % of Cmp 1a | 3 % of Cmp 1a and 5.34 % of Cmp 1a and 3.55 % of Cmp 1a | 3 % of Cmp 1a and 5.34 % of Cmp 1a and 3.55 % of Cmp 1a |
| C[C@@H](NC(=O)CSc1nc2cc(Cl)cnc2[nH]1)c1ccccc1 [Compound 63, C[C@@H](NC(=O)CSC1=NC=2C=C(Cl)C=NC2N1)C=3C=CC=CC3] | 69.704 % of Cmp 1a and 80.7602 % of Cmp 1a and 71.5084 % of Cmp 1a | 14 % of Cmp 1a and 5 % of Cmp 1a and 16 % of Cmp 1a | – |
